Source: patent US20120129897A1, “BIS HETEROARYL INHIBITORS OF PRO-MATRIX METALLOPROTEINASE ACTIVATION” (priority 2010, published 2012)

How the values were obtained:
[1] = molecular target: T1, MMP9 mediated gelatinase activity (Rattus norvegicus, UniProt P50282); assay: In situ zymography of gelatinase activity in livers of SCW-induced rats dosed with compound; format: in vivo; conditions: for Intensity (RLU × 10^6), Mean / Intensity (RLU × 10^6), Rat 1 / Intensity (RLU × 10^6), Rat 2 / Intensity (RLU × 10^6), Rat 3: Day 25-28, liver
T1 construct: from tissue; host or cells: frozen liver sections, female Lewis rats
T1 sequence (P50282 108-708): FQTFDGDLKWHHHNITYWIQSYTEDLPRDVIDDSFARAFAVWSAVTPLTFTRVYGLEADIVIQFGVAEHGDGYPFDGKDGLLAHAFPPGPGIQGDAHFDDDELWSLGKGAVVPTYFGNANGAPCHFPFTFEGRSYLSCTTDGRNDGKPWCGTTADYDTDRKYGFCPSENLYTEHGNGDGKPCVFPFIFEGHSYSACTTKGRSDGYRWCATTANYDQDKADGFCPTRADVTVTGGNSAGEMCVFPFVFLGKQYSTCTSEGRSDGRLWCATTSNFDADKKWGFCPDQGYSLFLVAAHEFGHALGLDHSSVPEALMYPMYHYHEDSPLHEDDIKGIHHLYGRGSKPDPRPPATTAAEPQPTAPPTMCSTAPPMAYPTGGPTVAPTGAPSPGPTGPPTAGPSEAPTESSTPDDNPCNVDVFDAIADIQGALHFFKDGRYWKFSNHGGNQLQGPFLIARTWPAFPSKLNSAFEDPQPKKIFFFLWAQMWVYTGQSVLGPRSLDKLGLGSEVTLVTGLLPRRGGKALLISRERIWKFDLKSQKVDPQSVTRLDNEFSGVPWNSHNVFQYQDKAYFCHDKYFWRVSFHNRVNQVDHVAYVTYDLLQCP
Excerpt: In situ zymography provides an alternative approach to assess active MMP9 in tissues (Frederiks). Tissue sections are overlain with fluorescene-conjugated gelatin wherein the conjugation is sufficiently dense to cause the fluorescene to be dye-quenched (DQ). Proteolytic degradation of the DQ-gelatin releases the fluorescene from the quenching effect giving rise to bright green fluorescence at the site of degradation. Because in situ zymography requires the use of frozen sections, calcified tissues are problematic. However, an additional feature of the SCW arthritis model is the development of hepatic granulomatous disease (J Immunol; 1986; 137:2199-2209), and MMP9 reportedly plays a role in macrophage recruitment in the granulomas response to mycobacteria (Infect Immun; 2006; 74:6135-6144). Consequently, granulomatous livers from SCW-treated rats were assessed for active MMP9 by in situ zymography.
As described above, Female Lewis (LEW/N) rats, 5-6 weeks of age (80-100 g) were injected (i.p.) with saline or SCW PG-PS. On day 28, when the granulomatous response was well established, animals were sacrificed and livers were frozen in OCT cryo-sectioning medium and […] sections were cut on a Cryome HM 500 M cryotome and mounted on glass microscope slides. Sections were air dried briefly. MMP9 was confirmed as the source of the gelatinase activity in the liver by treating liver sections with monoclonal antibodies directed against the active site of the two major gelatinases MMP9 and MMP2. Liver sections overlain with 50 μL of 100 μg/mL neutralizing mouse monoclonal antibodies directed against MMP9 (Calbiochem, clone 6-6B), or MMP2 (Millipore, clone CA-4001), or with PBS for 1 hr at room temperature. Tissues were rinsed once with PBS, blotted, and briefly air dried and then overlain with DQ-gelatin (Invitrogen) dissolved to 1 mg/mL in deionized water and then diluted 1:10 in 1% wt/vol low gelling point agarose type VII (Sigma) in PBS. The sections were covered with coverslips, incubated in the dark at room temperature for 20 min, and imaged on an Olympus IX80 inverted microscope fitted with fluorescence optics, using SlideBook™ imaging software (Intelligent Imaging Innovations, Inc., Philadelphia, Pa.; version 5.0). Fluorescence intensity was determined (Table 8). When compared to a saline-treated rat, gelatinase activity was abundantly expressed in granulomatous liver sections obtained from a rat with SCW arthritis.
Next, liver in situ zymography was used to assess the relative presence of active MMP9 in rats dosed with vehicle vs. Compound-α. Female Lewis (LEW/N) rats, 5-6 weeks of age (80-100 g) were injected (i.p.) with saline or SCW PG-PS. Commencing on day 25, randomized groups of rats (n=3 rats/group) received vehicle or 20 or 50 mg/kg Compound-α BID by oral gavage. Vehicle consisted of an aqueous mixture containing 2% (v:v) N-methylpyrrolidone, 5% (v:v) glycerine, and 20% (w:v) captisol. Treatment continued daily through the morning of day 28. Four hrs after the AM dose on day 28, rats were sacrificed and livers assessed for active MMP9 by in situ zymography (Table 9). Gelatinase activity was increased markedly in SCW-induced rats, but activity was reduced by approximately 80% in animals treated with 50 mg/kg Compound-α.

[2] = tested on: female Lewis rats with SCW-induced arthritis; assay: Efficacy in rats with SCW-induced arthritis (ankle thickness, clinical scores); format: in vivo, rat; conditions: 5, 20, 50 mg/kg BID oral, Day 18-26
Excerpt: A polyarthritis can be induced in female Lewis rats following i.p. administration of streptococcal cell wall (SCW) […] (PG-PS) (J Exp Med 1977; 146:1585-1602). The model has an acute phase (days 3-7) that is complement and neutrophil-dependent and that resolves. A chronic erosive phase begins at about day ten and is dependent on the development of specific T cell immunity to the PG-GS, which resists digestion and remains present in synovial macrophages for months. Like rheumatoid arthritis, SCW-induced arthritis is reduced by TNF inhibitors, and the dependence of SCW-induced arthritis on macrophages (Rheumatology; 2001; 40:978-987) and the strong association of rheumatoid arthritis severity with synovial-tissue macrophage counts (Ann Rheum Dis; 2005; 64:834-838) makes SCW-arthritis an attractive model for testing potential therapeutic agents. SCW PG-PS 10S (Beckton Dickinson Cat#210866) suspended in saline was vortexed for 30 seconds and sonicated for 3 min with a probe type sonicator prior to injection. […]
To induce arthritis, Female Lewis (LEW/N) rats, 5-6 weeks of age (80-100 g) were injected (i.p.) with SCW PG-PS as described above. […] Each ankle was measured 3 times and averaged, and treatment groups were randomized based on ankle thickness (Table 6). […]

With `Cc1nc(C)c(-c2csc(Nc3cc(S(N)(=O)=O)ccc3OC(C)C)n2)s1` [Compound-α, 3-(2′,4′-Dimethyl-[4,5′]bithiazolyl-2-ylamino)-4-isopropoxy-benzenesulfonamide.HBr] the “Intensity (RLU × 10^6), Mean” value ([1]; 20 mg/kg BID oral) was 55.2 RLU × 10^6, the “Intensity (RLU × 10^6), Rat 1” value ([1]; 20 mg/kg BID oral) was 43.0 RLU × 10^6 and the “Intensity (RLU × 10^6), Rat 2” value ([1]; 20 mg/kg BID oral) was 69.0 RLU × 10^6. For the same molecule, the “Intensity (RLU × 10^6), Rat 3” value ([1]; 20 mg/kg BID oral) was 53.7 RLU × 10^6, the “Reduction of liver gelatinase activity” value ([1]; 50 mg/kg BID oral, Day 25-28) was “approximately 80%” and the “Intensity (RLU × 10^6), Mean” value ([1]; 50 mg/kg BID oral) was 11.1 RLU × 10^6. The “Intensity (RLU × 10^6), Rat 1” value ([1]; 50 mg/kg BID oral) was 3.2 RLU × 10^6, the “Intensity (RLU × 10^6), Rat 2” value ([1]; 50 mg/kg BID oral) was 25.6 RLU × 10^6 and the “Intensity (RLU × 10^6), Rat 3” value ([1]; 50 mg/kg BID oral) was 4.5 RLU × 10^6. The “Ankle thickness measurements, effect of treatment” value [2] was “dose-dependent decrease in ankle thickness measurements” and the “Clinical score measurements, effect of treatment” value [2] was “dose dependent decrease in clinical score measurements”.
